System: C57B1/6 male mice
Test: Contextual fear conditioning (weak versus strong training), 4-day contextual memory scored as freezing, after intra-hippocampal infusion
Format: in vivo, mouse
Parameters: effect on memory induced by strong training: dose or concentration left out as unconfirmed
Conditions: tested 4 days after training; for freezing responses: ANI 62.5 μg/2 μl per hippocampus immediately after training
Experimental: Ten to twelve week old C57B1/6 male mice (Taconic Laboratory, N.Y.) were used. Mice were housed in groups of four in standard mouse cages and kept in a 12:12 light-dark cycle and constant temperature (22° C.) in a humidity and ventilation-controlled animal house. With the exception of surgery, training and testing times, the mice had ad lib access to food and water. Animals were acclimatized to animal house environment for a week before surgery. On a day of surgery, mice were anesthetized with 20 mg/kg Avertin and implanted with a 26-gauge guide double cannula aimed at the dorsal hippocampus using a stereotaxic apparatus (Korf Instruments, Calif.; coordinates: P=1 mm; 5 mm to a depth 1-1.2 mm; Franklin and Paxinos, The Mouse Brain In Stereotaxis Coordinates, Academic Press, San Diego, Calif. (1997)). After the end of surgery, animals were individually maintained in a cage with ad lib access to food and water. Seven days after recovery from surgery, animals were trained for contextual fear conditioning.
The basic fear conditioning procedures and equipment remained as described (Bourtchuladze, R. et al., Cell, 79:59-68 (1994); and Bourtchouladze et al., Learn Mem., 5(4-5):365-374 (1998)). On the training day, the mouse was placed in the conditioning chamber (Med Associates) for 2 minutes before the onset of unconditioned stimulus (US) of 0.5 mA, two seconds shock. For weak training, US was repeated two times with a one minute inter-trial interval between shocks. For strong training, 5 USs were given. Training was automated and performed by computerized software package (Med Associates).
Thirty seconds after the end of the last trial, the mouse was returned to its home cage. The conditioning chamber was cleaned with 75% ethanol and then with water. Contextual memory was tested four days after training by scoring freezing responses. Freezing was assessed with a sampling method. That is, 2 second observations were taken every 5 seconds (Bourtchuladze, R. et al., Cell, 79:59-68 (1994); Bourtchouladze et al., Learn Mem., 5(4-5):365-374 (1998); and Frankland, P. W. et al., Behav. Neurosci., 112:863-874 (1998)). A mouse was detminined to be freezing when it adopted a motionless posture, refraining from all but respiratory movements.
For each training and drug-injecting procedure, an experimentally nave group of animals was used. The observations were made by an experimenter unaware of the experimental treatment of the mice. In each experiment, both training and testing were videotaped. Experiments were analyzed with an analysis of variance (ANOVA) and t-tests.
Anisomycin (ANI) (Sigma) was dissolved in 0.9% saline, and the pH was adjusted with 1 N HCl to 7.4. Control animals received injections of saline. Mice were injected in the hippocampus (62.5 μg/2 μl per hippocampus) immediately after training. Infusions were made through the guide cannula using a 33-gauge injection needle. The needle was connected via a polyethylene tube to a microsyringe fixed in the pump 11 (Harvard Instruments). The entire infusion procedure took 2 minutes and animals were freely moving during this time in the home cage. Experiments were replicated 2 times and for each training procedure, an experimentally nave group of animals was used (n=47 total).
Mouse antisense oligodeoxynucleotides (ODNs) directed against CREB mRNA (5′-T-s-g-s-g-s-T-C-A-T-T-g-T-T-A-C-C-g-s-g-s-T-s-g-3′) (SEQ ID NO:1) was used to disrupt hippocampal CREB protein levels. Control groups received infusions of ODN of the same base composition but in randomized order (scrambled CREB: 5′-g-s-T-s-C-s-T-g-T-A-g-T-C-g-A-T-C-T-A-T-s-g-s-g-s-T3′) (SEQ ID NO:2). ODNs were administered into the hippocampus (2 nmol/2 μl per hippocampus) as described above for ANI-infusion. CREB ODNs were infused 20 hours before training. Experiments were replicated 3 times and for each training procedure, an experimentally nave group of animals was used (n=54 total). […]

Row | SMILES | freezing responses (strong training (5 USs)) | freezing responses (weak training (2 USs)) | effect on memory induced by weak training (ANI 62.5 mg/2 μl per hippocampus immediately after training, weak training, vs vehicle) | effect on memory induced by strong training (ANI per hippocampus immediately after training, strong training, vs vehicle) | effect on memory induced by weak training (Rolipram 0.03 ng into hippocampus, weak training (2 trials)) | effect on memory induced by weak training (Rolipram 3 ng into hippocampus, weak training (2 trials)) | effect on memory induced by weak training (Rolipram 30 ng/1 μl per hippocampus immediately after training, 2 trials, vs vehicle) | effect on maximal memory levels produced by strong training (Rolipram 30 ng/1 μl per hippocampus immediately after training, 5 trials, vs vehicle)
1 | COc1ccc(C[C@H]2NC[C@H](O)[C@H]2OC(C)=O)cc1 [ANI, Anisomycin] | 28.42±4.9% | 17.1±4.3% | significantly impaired memory | significantly impaired memory |  |  |  | 
2 | COc1ccc(C2CNC(=O)C2)cc1OC1CCCC1 (centres unmarked) [Rolipram] |  |  |  |  | had no memory enhancing effect | produced memory enhancing effect | significantly enhanced the amount of memory | had no effect

From US8066972B2, “Altering memory by affecting staufen function” (Helicon Therapeutics, Inc., priority 2002, dated 2011)
